Like-named read-outs stand apart in the source and are kept apart here.
Assays:
A2a receptors = target: T1, A2a receptors (Rattus norvegicus, UniProt P30543); assay: radioligand binding, displacement of specific [3H]CGS 21680 binding in rat striatal membranes; conditions: for inhibition at 100 µM: 10^-4 M
T1 construct: Displacement of specific [^3 H]; from tissue; host or cells: rat striatal membranes
Protocol: ^b Displacement of specific [^3 H]
or as a percentage of specific binding displaced at 100 μM.

A1 receptors = target: T2, A1 receptors (Rattus norvegicus, UniProt P25099); assay: biochemical; assay type: binding; conditions: for inhibition at 100 µM: 10^-4 M, read-out: displacement of specific binding rA1
T2 sequence (P25099 1-326): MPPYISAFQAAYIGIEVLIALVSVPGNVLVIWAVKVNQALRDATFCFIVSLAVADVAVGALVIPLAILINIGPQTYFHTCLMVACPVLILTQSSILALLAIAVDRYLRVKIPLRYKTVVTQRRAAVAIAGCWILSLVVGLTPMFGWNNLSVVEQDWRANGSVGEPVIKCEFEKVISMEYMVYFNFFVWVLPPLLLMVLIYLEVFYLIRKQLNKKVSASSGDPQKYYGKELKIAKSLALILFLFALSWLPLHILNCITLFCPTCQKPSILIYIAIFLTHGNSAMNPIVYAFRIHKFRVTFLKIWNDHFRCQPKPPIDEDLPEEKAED
Protocol: ^a Displacement of specific [^3 H] PIA binding in rat brain
percentage of specific binding displaced at 100 μM.

human A3 receptors = target: T3, human A3 receptors (Homo sapiens, UniProt P0DMS8); assay: radioligand binding, displacement of specific [125I]AB-MECA binding at human A3 receptors expressed in HEK-293 cells; conditions: for Ki: [125I]AB-MECA; for inhibition at 100 µM: 10^-4 M
T3 construct: expressed in transfected cells; host or cells: HEK-293 cells (membranes)
T3 sequence (P0DMS8 1-318): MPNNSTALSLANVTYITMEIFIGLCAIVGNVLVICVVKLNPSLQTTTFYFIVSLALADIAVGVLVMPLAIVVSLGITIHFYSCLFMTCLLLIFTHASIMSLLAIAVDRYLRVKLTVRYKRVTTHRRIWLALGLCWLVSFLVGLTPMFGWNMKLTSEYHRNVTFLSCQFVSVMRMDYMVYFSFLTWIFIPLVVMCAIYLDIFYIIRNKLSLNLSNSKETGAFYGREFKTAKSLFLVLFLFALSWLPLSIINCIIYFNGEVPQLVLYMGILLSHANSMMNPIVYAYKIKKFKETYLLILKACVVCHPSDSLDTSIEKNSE
Protocol: A3 receptors expressed in HEK293 cells, in membranes, expressed as
binding displaced at 100 μM.

[1] = Table 7, [3H]CGS 21680, rat striatal membranes, read-out: Ki (rA2A)
[2] = Table 7, [3H]PIA, rat brain membranes, read-out: Ki (rA1)
[3] = Table 7, read-out: % of specific binding displaced hA3
[4] = Table 6, [3H]CGS 21680, rat striatal membranes, read-out: K2 (rA2a)
[5] = Table 6, [3H]PIA, rat brain membranes, read-out: K2 (rA1)
[6] = Table 6, HEK-293 membranes, read-out: K2 (hA3)
[7] = Table 15, [3H]CGS 21680, rat striatal membranes, read-out: Ki rA2A
[8] = Table 15, [3H]PIA, rat brain membranes, read-out: Ki rA1
[9] = Table 15, HEK membranes, read-out: Ki hA3

T1 sequence (P30543 whole entry): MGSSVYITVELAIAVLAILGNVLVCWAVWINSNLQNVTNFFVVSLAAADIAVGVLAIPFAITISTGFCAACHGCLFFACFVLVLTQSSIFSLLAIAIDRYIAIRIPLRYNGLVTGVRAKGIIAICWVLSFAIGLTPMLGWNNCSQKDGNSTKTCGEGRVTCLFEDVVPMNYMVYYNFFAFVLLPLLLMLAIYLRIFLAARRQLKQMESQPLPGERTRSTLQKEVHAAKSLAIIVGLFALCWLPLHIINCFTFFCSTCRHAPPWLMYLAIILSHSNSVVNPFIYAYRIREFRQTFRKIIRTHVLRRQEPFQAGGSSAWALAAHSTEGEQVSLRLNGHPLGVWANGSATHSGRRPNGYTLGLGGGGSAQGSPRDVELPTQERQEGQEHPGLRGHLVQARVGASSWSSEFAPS

COc1c2ccoc2cc2oc(/C=C/c3ccccc3)cc(=O)c12 [Compound 19, 4-methyloxy-7-trans-styryl-visnagin]
Ki (A2a receptors; Table 5, [3H]CGS 21680, rat striatal membranes, read-out: Ki rA2a): 11.5 ± 1.3 µM | Ki (A1 receptors; Table 5, [3H]PIA, rat brain membranes, read-out: Ki rA1): 32.6 ± 10.5 µM | Ki (human A3 receptors; Table 5, HEK-293 membranes, read-out: Ki hA3): 8.28 ± 2.69 µM | rA1/hA3 (human A3 receptors; Table 5, ratio of Ki): 0.37

COc1c2ccoc2cc2oc(/C=C/C=Cc3ccccc3)cc(=O)c12 [Compound 22, 4-methoxy-7-phenylbutadienyl visnagin]
inhibition at 100 µM (A2a receptors; Table 5, read-out: displacement of specific binding rA2a): < 10% | inhibition at 100 µM (A1 receptors; Table 5): < 10% | inhibition at 100 µM (human A3 receptors; Table 5, read-out: displacement of specific binding hA3): < 10%

CCn1c2c(c3cc4c(cc3c1=O)OCO4)C(=O)CCC2 [Compound 46, reference compound]
Ki (A2a receptors; [1]): 6.98 ± 2.21 µM | Ki (A1 receptors; [2]): 7.59 ± 2.14 µM | inhibition at 100 µM (human A3 receptors; [3]): 19 ± 3%

COc1cc2oc(-c3ccc(O)cc3)cc(=O)c2c(O)c1OC [Compound 33, cirsimaritin, reference compound]
Ki (A2a receptors; [4]): 3 ± 0.7 µM | Ki (A1 receptors; [5]): 1.2 µM | Ki (human A3 receptors; [6]): 1.72 µM

O=C(Nc1nc2ccc(Cl)cc2c2nc(-c3ccco3)nn12)c1ccccc1 [Compound 151, 5-Benzoylamino-9-chloro-2-(2-furyl)[1,2,4]triazolo[1,5-c]quinazoline]
Ki (A2a receptors; [7]): 0.349 ± 0.042 µM | Ki (A1 receptors; [8]): 0.665 ± 0.082 µM | Ki (human A3 receptors; [9]): 0.00405 ± 0.00139 µM | rA1/hA3 (human A3 receptors; Table 15, ratio of Ki): 164 | rA2A/hA1 (human A3 receptors; Table 15, ratio of Ki): 86

O=C(C=Cc1ccccc1)Nc1nc2ccc(Cl)cc2c2nc(-c3ccco3)nn12 [Compound 161]
Ki (A2a receptors; Table 16, [3H]CGS 21680, rat striatal membranes, read-out: Ki rA2A): 0.0598 ± 0.0134 µM | Ki (A1 receptors; Table 16, [3H]R-PIA, rat brain membranes, read-out: Ki rA1): 0.282 ± 0.071 µM | Ki (human A3 receptors; Table 16, HEK membranes, read-out: Ki hA3): 0.06 ± 0.0063 µM

COc1ccc2c(c1)C(=O)[C@H](O)[C@@H](C#Cc1ccccc1)O2 (relative stereo) [Compound 16]
inhibition at 100 µM (A2a receptors; Table 4, read-out: displacement of specific binding rA2a): < 10% | Ki (A1 receptors; Table 4, [3H]PIA, rat brain membranes, read-out: Ki rA1): 50.3 ± 17 µM | rA1/hA3 (human A3 receptors): 6.2 | Ki (human A3 receptors; Table 4, HEK-293 membranes, read-out: Ki hA3): 8.17 µM

O=c1cc(-c2ccccc2)oc2ccc3ccccc3c12 [Compound 44, β-naphthoflavone, reference compound]
inhibition at 100 µM (A2a receptors; Table 7, read-out: displacement of specific binding rA2A): < 10% | Ki (A1 receptors; [2]): 8.8 ± 3.6 µM | inhibition at 10 µM (human A3 receptors; Table 7, 10^-5 M, read-out: % of specific binding displaced hA3): 12 ± 1%

COC(=O)c1c(C)nc(C)c(C(=O)OC)c1-c1ccccc1[N+](=O)[O-] [Compound 82, reference compound]
inhibition at 100 µM (A2a receptors; Table 10, read-out: displacement of specific binding rA2a): < 10% | inhibition at 100 µM (A1 receptors; Table 10): < 10% | inhibition at 100 µM (human A3 receptors; Table 10, read-out: displacement of specific binding hA3): < 10%

CC(C)(C)OC(=O)NCCCC(=O)Nc1nc2ccc(Cl)cc2c2nc(-c3ccco3)nn12 [Compound 154]
Ki (A2a receptors; [7]): 0.173 µM | Ki (A1 receptors; [8]): 0.0913 ± 0.0132 µM | Ki (human A3 receptors; [9]): 0.032 µM

O=c1cc(-c2ccccc2)oc2cc(O)ccc12 [Compound 26, reference compound]
Ki (A2a receptors; striatal membranes, read-out: K2 (rA2a)): 2.68 ± 0.68 µM | Ki (A1 receptors; [5]): 3.03 ± 0.49 µM | inhibition at 100 µM (human A3 receptors; Table 6, read-out: % inhibition hA3): 41 ± 7%

COc1cc2c(c(O)c1OC)c(=O)c1ccccc1n2C [Compound 51, 1-hydroxy-2,3-dimethoxy-10-methyl-9(10H)-acridinone, reference compound]
Ki (A2a receptors; [1]): 6.47 ± 1.9 µM | Ki (A1 receptors; [2]): 12.7 ± 1.2 µM | inhibition at 100 µM (human A3 receptors; [3]): 63 ± 7%

Oc1cc2c(cc1O)[C@@H]1c3ccc(O)c(O)c3OC[C@]1(O)C2 [Compound 50, hematoxylin, reference compound]
inhibition at 100 µM (A2a receptors; Table 7, read-out: % of specific binding displaced rA2A): 28 ± 2% | Ki (A1 receptors; [2]): 3.1 ± 0.6 µM | inhibition at 100 µM (human A3 receptors; Table 7, read-out: displacement of specific binding hA3): < 10%

COc1ccc(-c2cc(=O)c3c(O)cc(C)cc3o2)cc1 [Compound 29, reference compound]
Ki (A2a receptors; [4]): 28 ± 7.35 µM | Ki (A1 receptors; brain membranes, read-out: K2 (rA1)): 3.4 ± 0.35 µM | Ki (human A3 receptors; [6]): 6.7 ± 1.78 µM

COc1ccc2oc(C#Cc3ccccc3)c(O)c(=O)c2c1 [Compound 10, 2-phenylacetylenyl-3-hydroxy-6-methoxyflavone]
inhibition at 100 µM (A2a receptors; Table 3, read-out: displacement of specific binding rA2a): < 10% | inhibition at 100 µM (A1 receptors; Table 3): < 10% | rA1/hA3 (human A3 receptors): > 8
